Reference: patent US4740521A, “Saudin, a novel hypoglycemic agent” (Purdue Research Foundation, priority 1986, dated 1988)

Legend:
[1] = test system: plasma glucose level of non-fasted rats; test: plasma glucose level of non-fasted rats after I.P. injection (Table 1); type: in vivo, rats (male albino); conditions: 40 mg/kg I.P.
Experimental: (§1) Male albino rats weighing from 100-150 gm were divided into groups each comprised from 7-8 rats. […] Non-fasted and fasted rats were either non-alloxanized or injected I.V. with alloxan at a dose of 40 mg/kg two days before administration of saudin. Saudin was injected I.P. in the experiment groups in a suspension form containing 0.5% carboxymethylcellulose (CMC). Control groups received I.P. injection of 0.5% CMD at a dose not exceeding 1 ml/100 gm (Maximum volume used to suspend saudin). Blood samples were taken and the plasma glucose level was estimated as indicated in the results. The method used for glucose estimation was similar to that used by Free et al., Advances in Clinical Chemistry, E. H. Sobotaka and C. P. Steward (eds.), Academic Press, New York, 6, p. 67 (1973).
non-fasted rats in response to I.P. injection of
40 mg/kg. Blood samples were taken at 1 h intervals
in heparinized tubes and plasma was separated for […]

[2] = test system: plasma glucose level of alloxanized and non-alloxanized rats; test: plasma glucose level of alloxanized and non-alloxanized rats, fasted or non-fasted (Table 2); type: in vivo, rats (male albino)
Experimental: as §1
Effect of saudin on the plasma glucose level of alloxanized and
non-alloxanized rats either fasted
or non-fasted. Blood samples were taken 2 hours after saudin injection in
tubes containing heparin.
Plasma was separated for glucose estimation.

animals = test: hypoglycemic effect in animals on injection (general statement); type: in vivo; conditions: read-out: dose producing a significant hypoglycemic effect, by injection, "above about"
Experimental: For the control of hyperglycemia, a dose between about 25 and about 110 mg/kg is effective, when administered at intervals of about 2 to about 12 hours in a tissue-compatible liquid. Normal saline solution is a suitable solvent diluent, or alternatively aqueous carboxymethylcellulose.

in vivo = conditions: mouse, ip
Source text: When suspended in carboxymethylcellulose (1.5%) and injected i.p. into mice according to the method of Miller and Tainter, Proc. Soc.

[3] = test system: blood sugar level of fasting mice (alloxanized); test: blood sugar level of fasting alloxanized mice (Table 3); type: in vivo; conditions: for Blood Sugar Level, mean S.E., 1 h: control 327 ± 46; for Blood Sugar Level, mean S.E., 2 h: control 360 ± 50; for Blood Sugar Level, mean S.E., 3 h: control 355 ± 48.5; for Blood Sugar Level, mean S.E., 4 h: control 378 ± 51.5; for Blood Sugar Level, mean S.E., 5 h: control 377 ± 57.5
Experimental: It is possible, therefore, that saudin operates by a different mechanism than the hypoglycemic agents heretofore employed, and may for that reason find unique application in medicine. The results of comparative tests are given in the following Table 3, using mice injected intravenously with 50 mg/kg of alloxan 3 days before the tests.

[4] = fasting mice, 50 mg/kg alloxan i.v. 3 days before, saudin 40 mg/kg, tolbutamide 150 mg/kg

Row | SMILES | hypoglycemic effect (in words) ([1]; non-alloxanized fed rats, two hours after injection) | Plasma glucose level, S.E., 0 h ([1]; non-fasted, non-alloxanized rats, 0 h, control 113.63 ± 7.50, saudin S.E. 3.05) | Plasma glucose level, S.E., 1 h ([1]; non-fasted, non-alloxanized rats, 1 h, control 115.25 ± 5.78, saudin S.E. 4.45) | Plasma glucose level, S.E., 2 h ([1]; non-fasted, non-alloxanized rats, 2 h, control 126.75 ± 4.62, saudin S.E. 2.31*, significant vs control at P < 0.01) | Plasma glucose level, S.E., 3 h ([1]; non-fasted, non-alloxanized rats, 3 h, control 105.00 ± 3.23, saudin S.E. 3.78) | Plasma glucose level, S.E., 4 h ([1]; non-fasted, non-alloxanized rats, 4 h, control 104.73 ± 4.11, saudin S.E. 4.81) | Plasma glucose level, S.E., alloxanized fasted, Exp. ([2]; alloxanized (40 mg/kg alloxan I.V. 2 days before) fasted rats, 2 hours after saudin injection, control 116.66 ± 6.64, saudin S.E. 4.45) | Plasma glucose level, S.E., alloxanized non-fasted, Exp. ([2]; alloxanized (40 mg/kg alloxan I.V. 2 days before) non-fasted rats, 2 hours after saudin injection, control 141.2 ± 3.43, saudin S.E. 10.78) | effect on plasma glucose levels (in words) ([2]; fasted alloxanized and non-alloxanized rats, fed alloxanized rats) | Plasma glucose level, S.E., non-alloxanized fasted, Exp. ([2]; non-alloxanized fasted rats, 2 hours after saudin injection, control 81.14 ± 4.31, saudin S.E. 3.05) | Plasma glucose level, S.E., non-alloxanized non-fasted, Exp. ([2]; non-alloxanized non-fasted rats, 2 hours after saudin injection, control 132.14 ± 3.82, saudin S.E. 2.22*, significant vs control at P < 0.01) | minimal effective dose (animals) | LD50 (in vivo) | hypoglycemic effect in alloxanized mice (in words) ([3]; alloxanized mice, unlike tolbutamide) | Blood Sugar Level, mean S.E., 0 h ([3]; fasting mice, 50 mg/kg alloxan i.v. 3 days before, saudin 40 mg/kg, tolbutamide 150 mg/kg, 0 h, control 230 ± 40) | Blood Sugar Level, mean S.E., 1 h [3, 4] | Blood Sugar Level, mean S.E., 2 h [3, 4] | Blood Sugar Level, mean S.E., 3 h [3, 4] | Blood Sugar Level, mean S.E., 4 h [3, 4] | Blood Sugar Level, mean S.E., 5 h [3, 4]
1 | C[C@H]1C(=O)O[C@]23CC[C@]4(C)C(=O)OC[C@@]45O[C@](c4ccoc4)(C[C@@H]1[C@@]25C)O3 [saudin, (-)-(1R,4R,5S,7R,9S,13S,16R) -7-(3-furanyl)-4,13,16-trimethyl-2,8,11,17-tetraoxapentacyclo [7.6.1.1^1,7.0^5,16.0^9,13]heptadeca-3,12-dione] | significant hypoglycemic effect | 109.75 mg/dL | 127.86 mg/dL | 107.00 mg/dL | 97.00 mg/dL | 98.00 mg/dL | 103.5 mg/dL | 142.8 mg/dL | did not alter the plasma glucose levels | 79.86 mg/dL | 111.85 mg/dL | > 10 mg/kg | 500 ± 15.8 mg/kg | does not produce a hypoglycemic effect | 222 ± 25 mg % | 288 ± 48.5 mg % | 346 ± 55.4 mg % | 342 ± 55.4 mg % | 355 ± 54.3 mg % | 443 ± 62.7 mg %
2 | CCCCNC(=O)NS(=O)(=O)c1ccc(C)cc1 [tolbutamide, reference compound] | – | – | – | – | – | – | – | – | – | – | – | – | – | – | – | 185 ± 36 mg % | 212 ± 40.4 mg % | 235 ± 40.8 mg % | 262 ± 54 mg % | 347 ± 64 mg %
